# In patent publication US11384099B2, “Pyrazolopyridinone compounds” (Janssen Pharmaceutica NV, priority 2017, dated 2022):
# Assays:
# [1] = biological target: T1, NIH/3T3 cells overexpressing FGFR3 V555M-TACC3 fusion protein (Homo sapiens, UniProt P22607, V555M, cells depend on it); assay: NIH/3T3 FGFR3 V555M-TACC3 cell proliferation assay (CTG); type: cell-based; conditions: 72-hr incubation, CellTiter Glo; read-out: NIH/3T3 FGFR3 V555M-TACC3 CTG (IC50)
# T1 construct: NIH/3T3 FGFR3 V555M-TACC3 CTG (IC50); other: 72-hr incubation, CellTiter Glo; fused on or other part: C-terminal coiled-coil part of TACC3 (part of the key, as a fusion known from patients); Q9Y6A5 (Transforming acidic coiled-coil-containing protein 3)
# T1 sequence (P22607 whole entry V555M, the tested form may be a part): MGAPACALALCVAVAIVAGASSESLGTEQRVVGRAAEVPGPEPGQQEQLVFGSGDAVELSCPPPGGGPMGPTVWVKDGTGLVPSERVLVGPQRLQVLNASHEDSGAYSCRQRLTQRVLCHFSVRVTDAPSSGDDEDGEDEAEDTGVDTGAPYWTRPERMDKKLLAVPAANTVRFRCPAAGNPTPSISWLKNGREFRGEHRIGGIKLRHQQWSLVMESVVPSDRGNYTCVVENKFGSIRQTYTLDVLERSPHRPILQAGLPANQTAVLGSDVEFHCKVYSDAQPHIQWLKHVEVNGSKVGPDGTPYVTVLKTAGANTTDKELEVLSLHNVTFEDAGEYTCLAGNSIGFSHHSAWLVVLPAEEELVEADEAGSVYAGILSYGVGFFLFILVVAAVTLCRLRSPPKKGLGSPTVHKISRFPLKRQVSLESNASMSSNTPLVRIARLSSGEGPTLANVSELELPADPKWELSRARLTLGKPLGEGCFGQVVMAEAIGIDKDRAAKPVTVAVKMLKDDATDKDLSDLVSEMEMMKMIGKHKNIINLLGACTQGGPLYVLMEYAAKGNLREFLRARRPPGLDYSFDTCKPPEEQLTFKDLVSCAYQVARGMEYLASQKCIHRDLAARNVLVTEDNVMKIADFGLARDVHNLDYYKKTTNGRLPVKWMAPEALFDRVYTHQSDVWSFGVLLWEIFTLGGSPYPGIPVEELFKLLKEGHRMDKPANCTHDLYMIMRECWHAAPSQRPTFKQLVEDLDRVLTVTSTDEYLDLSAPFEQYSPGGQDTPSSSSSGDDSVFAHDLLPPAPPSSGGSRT
# Method: NIH/3T3 FGFR3 V555M-TACC3 Cell Proliferation Assay
# (§1) In day 1, 90 μL of cell suspension (NIH/3T3 cells overexpressing FGFR3 V555M-TACC3 fusion protein) (total 30,000 cells per well in growth medium (DMEM containing 1% Glutamax, 10% FBS and 1% Pen/Strep)) was seeded in a 96-well plate and then incubated overnight at 37° C. and 5% CO2. In day 2, 10 μL of growth medium containing 10-fold stock solution of testing compound was added into cell cultures (9 dose points with 4× serial dilution, starting with 10 μM, 0.1% DMSO final). After 72-hr incubation at 37° C. and 5% CO2, in day 5 a volume of 50 μL CellTiter Glo (CTG) reagent was added into cell-containing 96-well plate and the plate was incubated at room temperature for 10 minutes before RLUs (relative light unit) were measured on a microplate reader with luminescence detection module. The RLU value was normalized to survival % and concentration-response curve was plotted using Prism to calculate IC50 (M), pIC50 (−log IC50) and HillSlope value.
# [2] = system: NIH/3T3 cells transfected with control vector (MOCK); assay: NIH/3T3 mock cell proliferation assay (CTG, counter assay); type: cell-based; conditions: Mus musculus, NIH3T3; 72-hr incubation, CellTiter Glo; counter assay for general toxicity
# In short: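 Control-vector NIH/3T3 cells, 30,000/well in DMEM with 10% FBS, exposed 72 h at 37 °C to compound (9 points, 3-fold from 30 μM, 0.3% DMSO). CellTiter-Glo luminescence normalized to survival %; IC50, pIC50 and Hill slope from concentration-response fit.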
# [3] = system: NIH/3T3 cells overexpressing FGFR3 WT-TACC3 fusion protein; assay: NIH/3T3 FGFR3 WT-TACC3 cellular phospho-ERK assay (in vitro PD assay); type: cell-based; conditions: Mus musculus, NIH3T3; 1-hr incubation, AlphaLISA SureFire Ultra p-ERK1/2; read-out: NIH/3T3 FGFR3 WT-TACC3 pERK (IC50)
# Method: NIH/3T3 FGFR3 WT-TACC3 Cellular Phospho-ERK Assay (In Vitro PD Assay)
# (§2) 50 uL of cell suspension (NIH/3T3 cells overexpressing FGFR3 WT-TACC3 fusion protein) (total 10,000 cells per well in growth medium (DMEM containing 1% Glutamax, 10% FBS and 1% Pen/Strep)) was seeded in a 384-well plate. After overnight incubation at 37° C. and 5% CO2, 5.5 μL of growth medium containing 10× testing compound was added into cell cultures (10 dose points with 4× serial dilution, starting with 10 μM, 0.1% DMSO final). After 1-hr incubation at 37° C. and 5% CO2, the medium was depleted and AlphaLISA SureFire Ultra p-ERK1/2 (Thr202/Tyr204) Assay Kit (from PerkinElmer) was applied for phospho-ERK level detection according to the kit instructions. The RFUs (relative fluorescence units were measured on EnVision microplate reader (ex. 680 nm, em. 615 nm) and concentration-response curve was plotted using Prism to calculate IC50 (M), pIC50 (−log IC50) and HillSlope value.
# [4] = system: NIH/3T3 cells overexpressing FGFR3 V555M-TACC3 fusion protein; assay: NIH/3T3 FGFR3 V555M-TACC3 cellular phospho-ERK assay (in vitro PD assay); type: cell-based; conditions: Mus musculus, NIH3T3; 1-hr incubation, AlphaLISA SureFire Ultra p-ERK1/2; read-out: NIH/3T3 FGFR3 V555M-TACC3 pERK (IC50)
# Method: NIH/3T3 FGFR3 V555M-TACC3 Cellular Phospho-ERK Assay (In Vitro PD Assay)
# as §2, with “μL” for “uL”, “V555M-TACC3” for “WT-TACC3”
# [5] = biological target: T2, human FGFR3 wild type enzyme (cytoplasmic domain) (Homo sapiens, UniProt P22607); assay: FGFR3 wild type mobility shift assay (enzymatic assay, Caliper); type: biochemical; conditions: 75 μM ATP, 50 minutes at 30° C.
# T2 construct: human FGFR3 wild type enzyme (cytoplasmic domain, from Cama Biosciences); purchased Carna Biosciences
# T2 sequence (P22607 397-806 limits assumed): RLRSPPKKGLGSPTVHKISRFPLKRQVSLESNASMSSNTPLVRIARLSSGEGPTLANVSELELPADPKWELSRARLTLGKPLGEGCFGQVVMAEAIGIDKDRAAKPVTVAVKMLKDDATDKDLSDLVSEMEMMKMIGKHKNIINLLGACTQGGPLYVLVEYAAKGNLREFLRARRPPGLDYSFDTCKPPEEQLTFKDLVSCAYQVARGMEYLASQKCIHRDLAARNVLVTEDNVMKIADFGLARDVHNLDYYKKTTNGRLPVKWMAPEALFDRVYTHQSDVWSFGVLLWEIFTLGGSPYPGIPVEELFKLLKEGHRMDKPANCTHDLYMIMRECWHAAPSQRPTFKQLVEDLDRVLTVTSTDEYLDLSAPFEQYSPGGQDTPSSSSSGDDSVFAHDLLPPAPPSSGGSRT
# In short: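 Cytoplasmic-domain FGFR3 (0.04 ng/μL) reacted with 75 μM ATP and 1 μM FL-peptide 30 in HEPES pH 7.4/MgCl2/Brij35/DTT buffer, 1% DMSO final. Incubation 50 min at 30° C, EDTA stop; substrate phosphorylation read by microfluidic mobility shift.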
# [6] = biological target: T3, human FGFR3 V555M enzyme (cytoplasmic domain carrying V555M mutation) (Homo sapiens, UniProt P22607, V555M); assay: FGFR3 V555M mobility shift assay (enzymatic assay, Caliper); type: biochemical; conditions: 30 μM ATP, 45 minutes at 30° C.
# T3 construct: cytoplasmic domain carrying V555M mutation, from Carna Biosciences; purchased Carna Biosciences
# T3 sequence (P22607 397-806 V555M limits assumed): as the sequence (P22607 397-806 limits assumed) above, with V159M counted along it
# In short: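 Cytoplasmic-domain human FGFR3 V555M (0.04 ng/μL) reacted with 30 μM ATP and 1 μM FL-peptide 30 in HEPES pH 7.4, MgCl2, Brij35, DTT, 1% DMSO final. Incubation 45 min at 30 °C, stopped with EDTA. Substrate/product separated and read by mobility shift on a Caliper EZ reader II.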
# [7] = biological target: T4, NIH/3T3 cells overexpressing FGFR3 WT-TACC3 fusion protein (Homo sapiens, UniProt P22607); assay: NIH/3T3 FGFR3 WT-TACC3 cell proliferation assay (CTG); type: cell-based; conditions: 72-hr incubation, CellTiter Glo; read-out: NIH/3T3 FGFR3 WT-TACC3 CTG (IC50)
# T4 construct: NIH/3T3 FGFR3 WT-TACC3 CTG (IC50); other: 72-hr incubation, CellTiter Glo; fused on or other part: C-terminal coiled-coil part of TACC3 (part of the key, as a fusion known from patients); Q9Y6A5 (Transforming acidic coiled-coil-containing protein 3)
# T4 sequence (P22607 whole entry, change not shown, the tested form may be a part): as the sequence (P22607 whole entry V555M, the tested form may be a part) above, with M555V counted along it
# Method: NIH/3T3 FGFR3 WT-TACC3 Cell Proliferation Assay
# as §1, with “WT-TACC3” for “V555M-TACC3”
Structure (SMILES),GI50 [1] [µM],IC50 [2] [µM],IC50 [3] [µM],IC50 [4] [µM],IC50 [5] [µM],IC50 [6] [µM],GI50 [7] [µM]
"CCC(Nc1c(-c2nc3ccc(OCCOC)cc3[nH]2)c(=O)[nH]c2cn(C)nc12)c1ncccn1 (single isomer, unassigned) [Compound 48, (S*)-6-(6-(2-methoxyethoxy)-1H-benzo[d]imidazol-2-yl)-2-methyl-7-((1-(pyrimidin-2-yl)-propyl)amino)-2H-pyrazolo[4,3-b]pyridin-5 (4H)-one]",0.0185,0.396,–,–,–,–,–
"COc1cc2[nH]c(-c3c(N[C@@H](C)c4ncccn4)c4nn(C)cc4[nH]c3=O)nc2c(F)c1OC [Compound 55, (S)-6-(4-fluoro-5,6-dimethoxy-1H-benzo[d]imidazol-2-yl)-2-methyl-7-((1-(pyrimidin-2-yl)ethyl)amino)-2H-pyrazolo[4,3-b]pyridin-5 (4H)-one]",–,2.28,0.0055,0.00519,0.000957,0.000392,0.0174
